Literature values as cited in patent US20080085243A1, “MOLECULAR MARKERS FOR D[…] RESPONSIVENESS” (SIGMA-ALDRICH COMPANY, priority 2006, published 2008).

Test system: late stage non-small cell lung cancer (NSCLC)

For `CC(=O)O[C@H]1C(=O)[C@@]2(C)[C@H]([C@H](OC(=O)c3ccccc3)[C@]3(O)C[C@H](OC(=O)[C@H](O)[C@@H](NC(=O)c4ccccc4)c4ccccc4)C(C)=C1C3(C)C)[C@]1(OC(C)=O)CO[C@@H]1C[C@@H]2O` [paclitaxel], the “patients who respond therapeutically” value is given as “about 20%”.
